From EP2508526A1, “Spiroalkene carboxamide derivatives and their use as chemokine receptor modulators” (Ares Trading SA, priority 2011, dated 2012)
pKi: −log10 of the molar value. Where a name gives a salt, the structure may show the parent alone.

Each compound was assayed against T1, hCCR2b (Homo sapiens, UniProt P41597) (assay: CCR2 binding assay ([125I]MCP-1, SPA, CHO cell membranes)). Conditions: membranes from CHO cells expressing hCCR2b, 50 pM [125I]MCP-1; read-out: Binding hCCR2 (Ki).
T1 sequence (P41597 1-360 isoform P41597-2): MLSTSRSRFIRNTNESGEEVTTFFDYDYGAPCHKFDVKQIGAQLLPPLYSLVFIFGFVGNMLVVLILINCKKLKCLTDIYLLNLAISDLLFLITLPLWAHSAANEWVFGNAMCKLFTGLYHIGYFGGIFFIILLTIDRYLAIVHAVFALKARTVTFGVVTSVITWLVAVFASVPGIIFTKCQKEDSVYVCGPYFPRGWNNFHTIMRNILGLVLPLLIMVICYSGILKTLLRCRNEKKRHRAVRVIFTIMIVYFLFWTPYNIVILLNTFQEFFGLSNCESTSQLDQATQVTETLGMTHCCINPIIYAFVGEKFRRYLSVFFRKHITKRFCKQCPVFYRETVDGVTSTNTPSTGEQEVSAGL
Set-up: expressed in transfected cells; host or cells: CHO cells (membrane preparation)
How it was run: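 CHO membranes expressing hCCR2b (1–5 µg/well) with 50 pM [125I]MCP-1 and WGA SPA beads in 50 mM HEPES pH 7.4, 5 mM MgCl2, 1 mM CaCl2, 0.1% BSA, 1% DMSO; 90 min RT with agitation. Bound counts on scintillation counter; nonspecific defined by 1000-fold excess unlabeled compound.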
In the case of `CC1=C(C(=O)N2CCc3ccc(C(F)(F)F)cc3C2)C2(CCN(C3CCC(O)CC3)CC2)OC1=O` (stereo not shown) [Compound 31, 8-(4-hydroxycyclohexyl)-3-methyl-4-{[7-(trifluoromethyl)-3,4-dihydroisoquinolin-2(1H)-yl]carbonyl}-1-oxa-8-azaspiro[4.5]dec-3-en-2-one], the pKi was over 7.30. Compound `CCN1CCC2(CC1)OC(=O)C(C)=C2C(=O)NCCc1cccc(C(F)(F)F)c1` [Compound 99, 8-ethyl-3-methyl-2-oxo-N-{2-[3-(trifluoromethyl)phenyl]ethyl}-1-oxa-8-azaspiro[4.5]dec-3-ene-4-carboxamide] has a pKi of 5.70 to 6.30. `CC1=C(C(=O)N2CCN(c3cccc(C(F)(F)F)c3)CC2)C2(CCN(CC(=O)c3ccccc3)CC2)OC1=O` [Compound 108, 3-methyl-8-(2-oxo-2-phenylethyl)-4-({4-[3-(trifluoromethyl)phenyl]piperazin-1-yl}carbonyl)-1-oxa-8-azaspiro[4.5]dec-3-en-2-one] was tested, and the pKi was 6.30 to 7.00. Work on `CC1=C(C(=O)N2CCc3ccc(C(F)(F)F)cc3C2)C2(CCN(C)CC2)OC1=O` [Compound 27, 3,8-dimethyl-4-{[7-(trifluoromethyl)-3,4-dihydroisoquinolin-2(1H)-yl]carbonyl}-1-oxa-8-azaspiro[4.5]dec-3-en-2-one] yielded a pKi of over 7.30. `CCN1CCC2(CC1)OC(=O)C(C)=C2C(=O)N1CCN(c2cc(C(F)(F)F)ccn2)CC1` [Compound 70, 8-ethyl-3-methyl-4-({4-[4-(trifluoromethyl)pyridin-2-yl]piperazin-1-yl}carbonyl)-1-oxa-8-azaspiro[4.5]dec-3-en-2-one] showed a pKi of over 7.30. Work on `CCN1CCC2(CC1)OC(=O)C(C)=C2C(=O)N1CCc2cc(C(F)(F)F)ccc2C1` [Compound 54, 8-ethyl-3-methyl-4-{[6-(trifluoromethyl)-3,4-dihydroisoquinolin-2 (1H)-yl]carbonyl}-1-oxa-8-azaspiro[4.5]dec-3-en-2-one] yielded a pKi of over 7.30. Work on `CCN1CCCC2(CC1)OC(=O)C(C)=C2C(=O)N1CCc2ccc(C(F)(F)F)cc2C1` (stereo not shown) [Compound 120, 8-ethyl-3-methyl-4-{[7-(trifluoromethyl)-3,4-dihydroisoquinolin-2(1H)-yl]carbonyl}-1-oxa-8-azaspiro[4.6]undec-3-en-2-one] yielded a pKi of over 7.30. `COc1ccc(C2(O)CCC(N3CCC4(CC3)OC(=O)C(C)=C4C(=O)N3CCc4ccc(C(F)(F)F)cc4C3)CC2)cn1` (stereo not shown) [Compound 25, 8-[4-hydroxy-4-(6-methoxypyridin-3-yl)cyclohexyl]-3-methyl-4-{[7-(trifluoromethyl)-3,4-dihydroisoquinolin-2(1H)-yl]carbonyl}-1-oxa-8-azaspiro[4.5]dec-3-en-2-one] was tested, and the pKi was over 7.30. `CC1=C(C(=O)N2CCN(c3cccc(C(F)(F)F)c3)CC2)C2(CCN(C(C)Cc3ccccc3)CC2)OC1=O` (stereo not shown) [Compound 104, 3-methyl-8-(1-methyl-2-phenylethyl)-4-({4-[3-(trifluoromethyl)phenyl]piperazin-1-yl}carbonyl)-1-oxa-8-azaspiro[4.5]dec-3-en-2-one] showed a pKi of over 7.30. `CCCN1CCC2(CC1)OC(=O)C(C)=C2C(=O)N1CCc2ccc(C(F)(F)F)cc2C1` [Compound 28, 3-methyl-8-propyl-4-{[7-(trifluoromethyl)-3,4-dihydroisoquinolin-2(1H)-yl]carbonyl}-1-oxa-8-azaspiro[4.5]dec-3-en-2-one] was tested, and the pKi was over 7.30. `CC1=C(C(=O)N2CCN(c3cccc(Cl)c3)CC2)C2(CCN(Cc3ccccc3)CC2)OC1=O` [Compound 110, 8-benzyl-4-{[4-(3-chlorophenyl)piperazin-1-yl]carbonyl}-3-methyl-1-oxa-8-azaspiro[4.5]dec-3-en-2-one] was tested, and the pKi was 5.70 to 6.30. Compound `CCN1CCC2(CC1)OC(=O)C(C)=C2C(=O)N1CCN(c2cc(C(F)(F)F)cc(C(F)(F)F)c2)CC1` [Compound 88, 4-({4-[3,5-bis(trifluoromethyl)phenyl]piperazin-1-yl}carbonyl)-8-ethyl-3-methyl-1-oxa-8-azaspiro[4.5]dec-3-en-2-one] has a pKi of over 7.30. `CC1=C(C(=O)N2CCN(c3cccc(C(F)(F)F)c3)CC2)C2(CCN(CCc3ccncc3)CC2)OC1=O` [Compound 12, 3-methyl-8-(2-pyridin-4-ylethyl)-4-({4-[3-(trifluoromethyl)phenyl]piperazin-1-yl}carbonyl)-1-oxa-8-azaspiro[4.5]dec-3-en-2-one] gave a pKi of 7.00 to 7.30. In the case of `CCN1CCC2(CC1)OC(=O)C(C)=C2C(=O)N1CCN(c2cc(C(F)(F)F)ccc2OC)CC1` [Compound 95, 8-ethyl-4-({4-[2-methoxy-5-(trifluoromethyl)phenyl]piperazin-1-yl}carbonyl)-3-methyl-1-oxa-8-azaspiro[4.5]dec-3-en-2-one], the pKi was 5.70 to 6.30. `CCN1CCC2(C1)OC(=O)C(C)=C2C(=O)N1CCN(c2cccc(C(F)(F)F)c2)CC1` (stereo not shown) [Compound 118, 7-ethyl-3-methyl-4-({4-[3-(trifluoromethyl)phenyl]piperazin-1-yl}carbonyl)-1-oxa-7-azaspiro[4.4]non-3-en-2-one] gave a pKi of 7.00 to 7.30. `COC1COCCC1N1CCC2(CC1)OC(=O)C(C)=C2C(=O)N1CCc2ccc(C(F)(F)F)cc2C1` (single isomer, unassigned; (+)) [Compound 41, (+)-1,5-anhydro-3,4-dideoxy-2-O-methyl-3-(3-methyl-2-oxo-4-{[7-(trifluoromethyl)-3,4-dihydroisoquinolin-2(1H)-yl]carbonyl}-1-oxa-8-azaspiro[4.5]dec-3-en-8-yl)-pentitol] showed a pKi of over 7.30. For `CO[C@@H]1COCC[C@@H]1N1CCC2(CC1)OC(=O)C(C)=C2C(=O)N1CCc2ncc(C(F)(F)F)cc2C1` (single isomer, unassigned) [Compound 44, (-)-1,5-anhydro-2,3-dideoxy-4-O-methyl-3-(3-methyl-2-oxo-4-{[3-(trifluoromethyl)-7,8-dihydro-1,6-naphthyridin-6(5H)-yl]carbonyl}-1-oxa-8-azaspiro[4.5]dec-3-en-8-yl)-pentitol], the pKi was 6.30 to 7.00. With `CC1=C(C(=O)N2CCN(c3cccc(C(F)(F)F)c3)CC2)C2(CCN(C3CCOCC3)CC2)OC1=O` [Compound 21, 3-methyl-8-(tetrahydro-2H-pyran-4-yl)-4-({4-[3-(trifluoromethyl)phenyl]piperazin-1-yl}carbonyl)-1-oxa-8-azaspiro[4.5]dec-3-en-2-one] the pKi was over 7.30. `CC1=C(C(=O)N2CCN(c3cccc(C#N)c3)CC2)C2(CCN(Cc3ccccc3)CC2)OC1=O` [Compound 111, 3-{4-[(8-benzyl-3-methyl-2-oxo-1-oxa-8-azaspiro[4.5]dec-3-en-4-yl)carbonyl]piperazin-1-yl}benzonitrile] gave a pKi of 5.70 to 6.30. `CC1=C(C(=O)N2CCc3ccc(C(F)(F)F)cc3C2)C2(CCN(C(C)(C)C)CC2)OC1=O` [Compound 77, 8-tert-butyl-3-methyl-4-{[7-(trifluoromethyl)-3,4-dihydroisoquinolin-2(1H)-yl]carbonyl}-1-oxa-8-azaspiro[4.5]dec-3-en-2-one] gave a pKi of over 7.30. With `COCCN1CCC2(CC1)OC(=O)C(C)=C2C(=O)N1CCN(c2cccc(C(F)(F)F)c2)CC1` [Example 4, 8-(2-methoxyethyl)-3-methyl-4-({4-[3-(trifluoromethyl)phenyl]piperazin-1-yl}carbonyl)-1-oxa-8-azaspiro[4.5]dec-3-en-2-one] the pKi was over 7.30. `CC1=C(C(=O)N2CCN(c3cccc(Cl)c3)CC2)C2(CCN(C)CC2)OC1=O` [Compound 112, 4-{[4-(3-chlorophenyl)piperazin-1-yl]carbonyl}-3,8-dimethyl-1-oxa-8-azaspiro[4.5]dec-3-en-2-one] gave a pKi of 5.70 to 6.30. For `CCN1CCC2(CC1)OC(=O)C(C)=C2C(=O)N1CCCN(c2ccc(C(F)(F)F)cc2)CC1` [Compound 91, 8-ethyl-3-methyl-4-({4-[4-(trifluoromethyl)phenyl]-1,4-diazepan-1-yl}carbonyl)-1-oxa-8-azaspiro[4.5]dec-3-en-2-one], the pKi was 6.30 to 7.00. `COc1cccc(CCN2CCC3(CC2)OC(=O)C(C)=C3C(=O)N2CCN(c3cccc(C(F)(F)F)c3)CC2)c1` [Compound 8, 8-[2-(3-methoxyphenyl)ethyl]-3-methyl-4-({4-[3-(trifluoromethyl)pheny)]piperazin-1-yl}carbonyl)-1-oxa-8-azaspiro[4.5]dec-3-en-2-one, dihydrochloride salt] was tested, and the pKi was over 7.30. Work on `CCN1CCC2(CC1)OC(=O)C(C)=C2C(=O)N1CCN(CCc2ccc(F)cc2)CC1` [Compound 58, 8-ethyl-4-({4-[2-(4-fluorophenyl)ethyl]piperazin-1-yl}carbonyl)-3-methyl-1-oxa-8-azaspiro[4.5]dec-3-en-2-one] yielded a pKi of 6.30 to 7.00. `CCN1CCC2(CC1)OC(=O)C(C)=C2C(=O)N1CCC(Nc2cccc(C(F)(F)F)c2)CC1` [Compound 59, 8-ethyl-3-methyl-4-[(4-{[3-(trifluoromethyl)phenyl]amino}piperidin-1-yl)carbonyl]-1-oxa-8-azaspiro[4.5]dec-3-en-2-one] gave a pKi of 5.70 to 6.30. Compound `CCN1CCC2(CC1)OC(=O)C(C)=C2C(=O)Nc1cnn(-c2ccc(C(F)(F)F)cc2)c1` [Compound 67, 8-ethyl-3-methyl-2-oxo-N-{1-[4-(trifluoromethyl)phenyl]-1H-pyrazol-4-yl}-1-oxa-8-azaspiro[4.5]dec-3-ene-4-carboxamide] has a pKi of 5.70 to 6.30. In the case of `CC1=C(C(=O)N2CCc3ncc(C(F)(F)F)cc3C2)C2(CCN(CCF)CC2)OC1=O` [Compound 116, 8-(2-fluoroethyl)-3-methyl-4-{[3-(trifluoromethyl)-7,8-dihydro-1,6-naphthyridin-6(5H)-yl]carbonyl}-1-oxa-8-azaspiro[4.5]dec-3-en-2-one], the pKi was over 7.30.
